Measured values taken from paper PMC3433414, “Oral Administration of the Pimelic Diphenylamide HDAC Inhibitor HDACi 4b Is Unsuitable for Chronic Inhibition of HDAC Activity in the CNS In Vivo” (PLoS ONE, 2012).
Read-outs that look alike come from different tables or passages of the source.

How the values were obtained:
CB2 (h) = target: T1, CB2 (h) (Homo sapiens, UniProt P34972); assay: Cerep binding, agonist radioligand; settings: read-out: % inhibition of control specific binding
T1 construct: purchased Cerep (Diversity Profile)
From the text: (§1) In addition to the HDAC profiling performed, we also queried 4b for any apparent potential off-target effects, which could complicate any finding of efficacy or adverse events in vivo due to ‘polypharmacy’. This was accomplished by screening against a ‘diversity panel’ of 72 binding and 29 enzyme assays, comprised of roughly equal numbers of selective central and peripheral therapeutically relevant targets (Cerep Diversity Profile). This panel included representative targets from diverse enzyme families, G protein coupled receptors, steroid nuclear receptors, voltage- and ligand-gated ion channels. While not totally inclusive, it is a useful tool for discovery compounds to assess their viability as proof of concept molecules to specifically query a particular target. 4b was initially screened at 10 µM in duplicate. The full set of results is provided as Table S1. […] This clean in vitro profile was considered acceptable to proceed to ADME and pharmacokinetic studies.

CB1 (h) = target: T2, CB1 (h) (Homo sapiens, UniProt P21554); assay: Cerep binding, agonist radioligand; settings: read-out: % inhibition of control specific binding
T2 construct: purchased Cerep (Diversity Profile)
From the text: as §1

NK1 (h) = target: T3, NK1 (h) (Homo sapiens, UniProt P25103); assay: Cerep binding, agonist radioligand; settings: read-out: % inhibition of control specific binding
T3 construct: purchased Cerep (Diversity Profile)
From the text: as §1

PR (h) = target: T4, PR (h) (Homo sapiens, UniProt P06401); assay: Cerep binding, agonist radioligand; settings: read-out: % inhibition of control specific binding
T4 construct: purchased Cerep (Diversity Profile)
From the text: as §1

NK2 (h) = target: T5, NK2 (h) (Homo sapiens, UniProt P21452); assay: Cerep binding, agonist radioligand; settings: read-out: % inhibition of control specific binding
T5 construct: purchased Cerep (Diversity Profile)
From the text: as §1

2 (h) = target: T6, 2 (h) (Homo sapiens, UniProt P07550); assay: Cerep binding, agonist radioligand; settings: read-out: % inhibition of control specific binding
T6 construct: purchased Cerep (Diversity Profile)
From the text: as §1

V1a (h) = target: T7, V1a (h) (Homo sapiens, UniProt P37288); assay: Cerep binding, agonist radioligand; settings: read-out: % inhibition of control specific binding
T7 construct: purchased Cerep (Diversity Profile)
From the text: as §1

PPAR (h) = target: T8, PPAR (h) (Homo sapiens, UniProt P37231); assay: Cerep binding, agonist radioligand; settings: read-out: % inhibition of control specific binding
T8 construct: purchased Cerep (Diversity Profile)
From the text: as §1

H3 (h) = target: T9, H3 (h) (Homo sapiens, UniProt Q9Y5N1); assay: Cerep binding, agonist radioligand; settings: read-out: % inhibition of control specific binding
T9 construct: purchased Cerep (Diversity Profile)
From the text: as §1

TRH1 (h) = target: T10, TRH1 (h) (Homo sapiens, UniProt P34981); assay: Cerep binding, agonist radioligand; settings: read-out: % inhibition of control specific binding
T10 construct: purchased Cerep (Diversity Profile)
From the text: as §1

AT2 (h) = target: T11, AT2 (h) (Homo sapiens, UniProt P50052); assay: Cerep binding, agonist radioligand; settings: read-out: % inhibition of control specific binding
T11 construct: purchased Cerep (Diversity Profile)
From the text: as §1

V2 (h) = target: T12, V2 (h) (Homo sapiens, UniProt P30518); assay: Cerep binding, agonist radioligand; settings: read-out: % inhibition of control specific binding
T12 construct: purchased Cerep (Diversity Profile)
From the text: as §1

GABA (non‐selective) = assay: Cerep binding, agonist radioligand; settings: 10 μM
From the text: as §1

CCK2 (CCKB) (h) = target: T13, CCK2 (CCKB) (h) (Homo sapiens, UniProt P32239); assay: Cerep binding, agonist radioligand; settings: read-out: % inhibition of control specific binding
T13 construct: purchased Cerep (Diversity Profile)
From the text: as §1

A2A (h) = target: T14, A2A (h) (Homo sapiens, UniProt P29274); assay: Cerep binding, agonist radioligand; settings: read-out: % inhibition of control specific binding
T14 construct: purchased Cerep (Diversity Profile)
From the text: as §1

CysLT1 (LTD4) (h) = target: T15, CysLT1 (LTD4) (h) (Homo sapiens, UniProt Q9Y271); assay: Cerep binding, agonist radioligand; settings: read-out: % inhibition of control specific binding
T15 construct: purchased Cerep (Diversity Profile)
From the text: as §1

EP2 (h) = target: T16, EP2 (h) (Homo sapiens, UniProt P43116); assay: Cerep binding, agonist radioligand; settings: read-out: % inhibition of control specific binding
T16 construct: purchased Cerep (Diversity Profile)
From the text: as §1

A3 (h) = target: T17, A3 (h) (Homo sapiens, UniProt P0DMS8); assay: Cerep binding, agonist radioligand; settings: read-out: % inhibition of control specific binding
T17 construct: purchased Cerep (Diversity Profile)
From the text: as §1

MC4 (h) = target: T18, MC4 (h) (Homo sapiens, UniProt P32245); assay: Cerep binding, agonist radioligand; settings: read-out: % inhibition of control specific binding
T18 construct: purchased Cerep (Diversity Profile)
From the text: as §1

BLT1 (LTB4) (h) = target: T19, BLT1 (LTB4) (h) (Homo sapiens, UniProt Q15722); assay: Cerep binding, agonist radioligand; settings: read-out: % inhibition of control specific binding
T19 construct: purchased Cerep (Diversity Profile)
From the text: as §1

[1] = system: endogenous Class I HDACs/HDAC6; assay: Cellular HDAC assay, Boc_Lys_Ac substrate, Jurkat E6.1 cells; assay type: cell-based
Description: Briefly, Jurkat E6.1 cells (obtained from the European Collection of Cell Cultures (ECACC)) were plated into 384 well plates at 75,000 cells/well in cellular assay buffer (RPMI without phenol red, 0.1% Fetal Bovine Serum, 10 mM HEPES, 1 mM Sodium Pyruvate). […] Fluorescent counts were read the following morning on the Perkin Elmer EnVision.
Each compound was tested in duplicate in concentration-response format on 3 separate days. […] A full dose response of reference compound was always included alongside the profiling, to ensure that assay parameters remained within acceptable limits.

NK3 (h) = target: T20, NK3 (h) (Homo sapiens, UniProt P29371); assay: Cerep binding, antagonist radioligand; settings: read-out: % inhibition of control specific binding
T20 construct: purchased Cerep (Diversity Profile)
From the text: as §1

D2S (h) = target: T21, D2S (h) (Homo sapiens, UniProt P14416); assay: Cerep binding, antagonist radioligand; settings: read-out: % inhibition of control specific binding
T21 construct: purchased Cerep (Diversity Profile)
From the text: as §1

A1 (h) = target: T22, A1 (h) (Homo sapiens, UniProt P30542); assay: Cerep binding, antagonist radioligand; settings: read-out: % inhibition of control specific binding
T22 construct: purchased Cerep (Diversity Profile)
From the text: as §1

H1 (h) = target: T23, H1 (h) (Homo sapiens, UniProt P35367); assay: Cerep binding, antagonist radioligand; settings: read-out: % inhibition of control specific binding
T23 construct: purchased Cerep (Diversity Profile)
From the text: as §1

[2] = target: T24, norepinephrine transporter (h) (Homo sapiens, UniProt P23975); assay: Cerep binding, antagonist radioligand; settings: read-out: % inhibition of control specific binding
T24 construct: purchased Cerep (Diversity Profile)
From the text: as §1

dopamine transporter (h) = target: T25, dopamine transporter (h) (Homo sapiens, UniProt Q01959); assay: Cerep binding, antagonist radioligand; settings: read-out: % inhibition of control specific binding
T25 construct: purchased Cerep (Diversity Profile)
From the text: as §1

5‐HT transporter (h) = target: T26, 5‐HT transporter (h) (Homo sapiens, UniProt P31645); assay: Cerep binding, antagonist radioligand; settings: read-out: % inhibition of control specific binding
T26 construct: purchased Cerep (Diversity Profile)
From the text: as §1

[3] = Cerep binding, antagonist radioligand; settings: 10 μM
From the text: as §1

[4] = system: Ca2+ channel (L, verapamil site) (phenylalkylamine); assay: Cerep binding, antagonist radioligand; settings: 10 μM
From the text: as §1

I2 = assay: Cerep binding, antagonist radioligand; settings: 10 μM
From the text: as §1

[5] = target: T27, choline transporter (CHT1) (h) (Homo sapiens, UniProt Q9GZV3); assay: Cerep binding, antagonist radioligand; settings: read-out: % inhibition of control specific binding
T27 construct: purchased Cerep (Diversity Profile)
From the text: as §1

KV channel = assay: Cerep binding, antagonist radioligand; settings: 10 μM
From the text: as §1

Cl‐channel (GABA‐gated) = assay: Cerep binding, antagonist radioligand; settings: 10 μM
From the text: as §1

D3 (h) = target: T28, D3 (h) (Homo sapiens, UniProt P35462); assay: Cerep binding, antagonist radioligand; settings: read-out: % inhibition of control specific binding
T28 construct: purchased Cerep (Diversity Profile)
From the text: as §1

D4.4 (h) = target: T29, D4.4 (h) (Homo sapiens, UniProt P21917); assay: Cerep binding, antagonist radioligand; settings: read-out: % inhibition of control specific binding
T29 construct: purchased Cerep (Diversity Profile)
From the text: as §1

T7 sequence (P37288 whole entry): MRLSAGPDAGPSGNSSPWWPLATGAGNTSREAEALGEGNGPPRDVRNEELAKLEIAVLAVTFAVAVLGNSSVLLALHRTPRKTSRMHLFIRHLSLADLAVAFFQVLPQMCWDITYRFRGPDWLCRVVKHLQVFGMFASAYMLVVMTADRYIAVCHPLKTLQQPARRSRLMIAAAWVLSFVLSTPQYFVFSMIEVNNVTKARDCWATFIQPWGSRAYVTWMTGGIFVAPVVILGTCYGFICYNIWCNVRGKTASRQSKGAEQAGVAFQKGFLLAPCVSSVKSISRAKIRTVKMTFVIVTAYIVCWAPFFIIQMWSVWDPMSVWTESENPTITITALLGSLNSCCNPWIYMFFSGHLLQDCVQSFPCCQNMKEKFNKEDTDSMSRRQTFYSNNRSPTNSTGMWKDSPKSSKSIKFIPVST
T12 sequence (P30518 whole entry): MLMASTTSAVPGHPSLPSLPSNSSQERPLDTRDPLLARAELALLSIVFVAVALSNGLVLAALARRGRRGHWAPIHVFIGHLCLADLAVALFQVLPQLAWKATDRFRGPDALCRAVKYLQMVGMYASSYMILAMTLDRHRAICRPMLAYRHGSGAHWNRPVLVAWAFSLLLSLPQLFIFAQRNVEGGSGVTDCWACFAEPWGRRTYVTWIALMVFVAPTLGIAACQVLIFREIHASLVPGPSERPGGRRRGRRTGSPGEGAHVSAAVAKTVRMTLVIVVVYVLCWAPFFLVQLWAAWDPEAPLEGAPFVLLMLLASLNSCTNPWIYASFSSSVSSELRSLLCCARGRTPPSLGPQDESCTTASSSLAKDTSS
T2 sequence (P21554 whole entry): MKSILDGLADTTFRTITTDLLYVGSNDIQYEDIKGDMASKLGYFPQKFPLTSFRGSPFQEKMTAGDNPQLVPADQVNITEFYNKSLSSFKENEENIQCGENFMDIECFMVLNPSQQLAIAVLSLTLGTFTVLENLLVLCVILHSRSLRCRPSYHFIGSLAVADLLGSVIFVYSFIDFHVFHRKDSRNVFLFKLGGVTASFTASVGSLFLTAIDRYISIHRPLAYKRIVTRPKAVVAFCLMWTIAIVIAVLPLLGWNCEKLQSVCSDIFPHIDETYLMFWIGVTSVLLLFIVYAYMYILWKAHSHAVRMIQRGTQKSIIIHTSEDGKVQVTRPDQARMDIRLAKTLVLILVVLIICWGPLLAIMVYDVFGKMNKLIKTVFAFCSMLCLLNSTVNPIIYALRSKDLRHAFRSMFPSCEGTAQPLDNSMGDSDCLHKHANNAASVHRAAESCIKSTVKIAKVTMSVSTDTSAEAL
T26 sequence (P31645 whole entry): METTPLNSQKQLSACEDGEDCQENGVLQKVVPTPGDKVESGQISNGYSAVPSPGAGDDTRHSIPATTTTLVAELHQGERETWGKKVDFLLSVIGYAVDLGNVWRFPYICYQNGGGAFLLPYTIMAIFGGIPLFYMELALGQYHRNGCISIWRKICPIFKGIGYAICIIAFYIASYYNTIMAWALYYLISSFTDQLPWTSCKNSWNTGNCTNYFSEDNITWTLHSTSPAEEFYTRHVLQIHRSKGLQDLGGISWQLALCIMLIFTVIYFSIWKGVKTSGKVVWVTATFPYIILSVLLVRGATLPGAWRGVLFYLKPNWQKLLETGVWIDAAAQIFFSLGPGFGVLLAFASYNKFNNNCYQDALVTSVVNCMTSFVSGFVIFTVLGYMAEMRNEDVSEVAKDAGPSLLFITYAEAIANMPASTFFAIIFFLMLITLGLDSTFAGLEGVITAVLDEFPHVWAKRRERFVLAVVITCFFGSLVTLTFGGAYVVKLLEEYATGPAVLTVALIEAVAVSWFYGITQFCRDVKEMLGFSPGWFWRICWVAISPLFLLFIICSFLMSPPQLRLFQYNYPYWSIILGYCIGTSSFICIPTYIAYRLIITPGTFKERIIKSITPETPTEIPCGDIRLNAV
T11 sequence (P50052 whole entry): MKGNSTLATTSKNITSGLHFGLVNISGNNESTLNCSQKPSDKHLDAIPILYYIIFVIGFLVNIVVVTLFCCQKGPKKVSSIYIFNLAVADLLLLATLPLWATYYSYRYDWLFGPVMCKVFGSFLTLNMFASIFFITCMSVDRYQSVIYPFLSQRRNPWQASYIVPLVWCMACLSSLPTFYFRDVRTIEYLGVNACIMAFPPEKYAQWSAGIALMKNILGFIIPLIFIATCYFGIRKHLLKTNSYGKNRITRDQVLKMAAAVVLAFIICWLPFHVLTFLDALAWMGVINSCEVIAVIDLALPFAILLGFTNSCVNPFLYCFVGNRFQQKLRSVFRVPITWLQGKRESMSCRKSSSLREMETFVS
T29 sequence (P21917 whole entry): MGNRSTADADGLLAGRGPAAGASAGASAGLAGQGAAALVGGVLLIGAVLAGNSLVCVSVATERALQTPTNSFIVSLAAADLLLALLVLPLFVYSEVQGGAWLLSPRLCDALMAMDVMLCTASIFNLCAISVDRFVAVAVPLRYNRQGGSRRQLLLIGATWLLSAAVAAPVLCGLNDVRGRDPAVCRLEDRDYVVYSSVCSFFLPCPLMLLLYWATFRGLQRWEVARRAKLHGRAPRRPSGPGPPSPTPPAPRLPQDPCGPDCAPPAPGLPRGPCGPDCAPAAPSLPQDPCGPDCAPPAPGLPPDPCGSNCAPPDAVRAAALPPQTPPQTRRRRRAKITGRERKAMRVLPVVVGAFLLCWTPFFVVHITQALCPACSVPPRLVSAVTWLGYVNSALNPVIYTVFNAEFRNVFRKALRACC
T6 sequence (P07550 whole entry): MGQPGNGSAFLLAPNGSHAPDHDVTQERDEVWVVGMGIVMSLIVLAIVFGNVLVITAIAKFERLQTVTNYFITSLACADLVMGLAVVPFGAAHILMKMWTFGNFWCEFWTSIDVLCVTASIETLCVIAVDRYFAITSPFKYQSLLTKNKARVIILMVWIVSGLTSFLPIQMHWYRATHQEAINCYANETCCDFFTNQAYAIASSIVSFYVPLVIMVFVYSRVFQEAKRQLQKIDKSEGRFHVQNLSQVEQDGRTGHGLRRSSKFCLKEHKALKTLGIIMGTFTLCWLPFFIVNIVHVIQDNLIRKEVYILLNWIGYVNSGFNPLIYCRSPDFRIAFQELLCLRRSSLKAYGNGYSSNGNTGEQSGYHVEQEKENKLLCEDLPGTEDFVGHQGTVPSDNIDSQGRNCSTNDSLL
T8 sequence (P37231 whole entry): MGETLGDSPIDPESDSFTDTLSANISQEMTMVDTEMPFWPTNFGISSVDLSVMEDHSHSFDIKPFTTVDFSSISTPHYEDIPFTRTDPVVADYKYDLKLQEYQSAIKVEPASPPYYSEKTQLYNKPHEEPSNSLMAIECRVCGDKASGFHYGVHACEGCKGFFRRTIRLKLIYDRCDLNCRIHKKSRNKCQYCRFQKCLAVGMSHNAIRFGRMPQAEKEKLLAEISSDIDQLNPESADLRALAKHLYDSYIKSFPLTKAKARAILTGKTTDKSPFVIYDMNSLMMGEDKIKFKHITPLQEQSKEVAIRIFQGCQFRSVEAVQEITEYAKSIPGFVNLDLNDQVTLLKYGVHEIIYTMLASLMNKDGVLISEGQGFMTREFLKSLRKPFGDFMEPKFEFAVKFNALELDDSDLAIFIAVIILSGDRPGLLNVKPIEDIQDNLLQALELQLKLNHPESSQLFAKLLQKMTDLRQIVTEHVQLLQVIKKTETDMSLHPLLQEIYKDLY
T19 sequence (Q15722 whole entry): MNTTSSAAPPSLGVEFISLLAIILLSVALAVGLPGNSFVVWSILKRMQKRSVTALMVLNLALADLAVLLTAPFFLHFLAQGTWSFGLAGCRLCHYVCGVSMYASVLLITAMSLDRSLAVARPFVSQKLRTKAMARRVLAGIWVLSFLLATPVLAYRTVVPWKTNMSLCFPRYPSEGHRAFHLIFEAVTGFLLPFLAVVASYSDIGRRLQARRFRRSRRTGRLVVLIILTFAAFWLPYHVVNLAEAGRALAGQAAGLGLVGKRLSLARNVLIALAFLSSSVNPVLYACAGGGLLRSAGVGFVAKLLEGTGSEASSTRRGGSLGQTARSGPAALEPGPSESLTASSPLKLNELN
T10 sequence (P34981 whole entry): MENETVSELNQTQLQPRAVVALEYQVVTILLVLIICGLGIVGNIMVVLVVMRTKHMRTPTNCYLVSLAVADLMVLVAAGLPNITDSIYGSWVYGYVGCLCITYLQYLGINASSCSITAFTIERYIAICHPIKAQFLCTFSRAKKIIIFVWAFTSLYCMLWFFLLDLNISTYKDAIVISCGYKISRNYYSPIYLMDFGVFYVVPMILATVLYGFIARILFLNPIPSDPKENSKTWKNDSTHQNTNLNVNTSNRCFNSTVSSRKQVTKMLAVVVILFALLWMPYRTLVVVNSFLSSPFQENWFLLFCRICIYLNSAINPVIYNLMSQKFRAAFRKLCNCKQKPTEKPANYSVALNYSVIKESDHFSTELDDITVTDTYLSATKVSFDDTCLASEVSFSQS
T16 sequence (P43116 whole entry): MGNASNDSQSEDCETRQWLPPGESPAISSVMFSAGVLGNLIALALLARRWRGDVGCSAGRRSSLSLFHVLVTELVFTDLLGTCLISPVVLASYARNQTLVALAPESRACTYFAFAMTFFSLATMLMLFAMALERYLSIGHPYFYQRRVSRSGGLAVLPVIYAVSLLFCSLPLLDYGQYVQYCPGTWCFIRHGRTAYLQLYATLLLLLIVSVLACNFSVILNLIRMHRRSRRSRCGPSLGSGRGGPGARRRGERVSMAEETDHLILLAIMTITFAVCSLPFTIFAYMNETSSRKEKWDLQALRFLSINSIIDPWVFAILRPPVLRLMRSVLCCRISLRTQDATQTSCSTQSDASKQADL

## Nc1ccccc1NC(=O)CCCCCC(=O)Nc1ccccc1 [Compound 4b]
CB2 (h)
  inhibition at 10 µM: 0%
CB1 (h)
  inhibition at 10 µM: 7%
NK1 (h)
  inhibition at 10 µM: 7%
PR (h)
  inhibition at 10 µM: 0%
NK2 (h)
  inhibition at 10 µM: 5%
2 (h)
  inhibition at 10 µM: 2%
V1a (h)
  inhibition at 10 µM: 10%
PPAR (h)
  inhibition at 10 µM: 13%
H3 (h)
  inhibition at 10 µM: 0%
TRH1 (h)
  inhibition at 10 µM: 9%
AT2 (h)
  inhibition at 10 µM: 4%
V2 (h)
  inhibition at 10 µM: 6%
GABA (non‐selective)
  % inhibition of control specific binding: 14%
CCK2 (CCKB) (h)
  inhibition at 10 µM: 0%
A2A (h)
  inhibition at 10 µM: 0%
CysLT1 (LTD4) (h)
  inhibition at 10 µM: 0%
EP2 (h)
  inhibition at 10 µM: 15%
A3 (h)
  inhibition at 10 µM: 8%
MC4 (h)
  inhibition at 10 µM: 1%
BLT1 (LTB4) (h)
  inhibition at 10 µM: 2%
[1]; 24 h pre-incubation with cells (maximal), read-out: cellular IC50, Boc_Lys_Ac substrate ('Class I' HDAC inhibition)
  IC50: 1.8 µM
[1]; Jurkat E6.1, standard protocol, total incubation time 5 h, read-out: cellular IC50, Boc_Lys_Ac substrate (Class I inhibition)
  IC50: 5.3 µM
[1]; dilution prepared 21 h previously in DMSO or aqueous buffer, no pre-incubation with cells, read-out: cellular IC50, Boc_Lys_Ac substrate
  IC50: 15 µM
[1]; freshly prepared compound dilution, no pre-incubation with cells, read-out: cellular IC50, Boc_Lys_Ac substrate
  IC50: 16 µM
[1]; no pre-incubation with cells, read-out: cellular IC50, Boc_Lys_Ac substrate
  IC50: 16 µM
NK3 (h)
  inhibition at 10 µM: 0%
D2S (h)
  inhibition at 10 µM: 3%
A1 (h)
  inhibition at 10 µM: 7%
H1 (h)
  inhibition at 10 µM: 10%
[2]
  inhibition at 10 µM: 0%
Dopamine transporter (h)
  inhibition at 10 µM: 2%
5‐HT transporter (h)
  inhibition at 10 µM: 5%
[3]
  % inhibition of control specific binding: 0%
[4]
  % inhibition of control specific binding: 7%
I2
  % inhibition of control specific binding: 5%
[5]
  inhibition at 10 µM: 14%
KV channel
  % inhibition of control specific binding: 2%
Cl‐channel (GABA‐gated)
  % inhibition of control specific binding: 0%
D3 (h)
  inhibition at 10 µM: 10%
D4.4 (h)
  inhibition at 10 µM: 13%

## O=C(CCCCCc1nc2ccccc2[nH]1)Nc1ccccc1 [Compound C1, 6-(1-H-benzo[d]imidazol-2-yl)-N-phenylhexanamide]
CB2 (h); 10 μM
  inhibition at 10 µM: 3%
CB1 (h); 10 μM
  inhibition at 10 µM: 18%
NK1 (h); 10 μM
  inhibition at 10 µM: 9%
PR (h); 10 μM
  inhibition at 10 µM: 1%
NK2 (h); 10 μM
  inhibition at 10 µM: 9%
2 (h); 10 μM
  inhibition at 10 µM: 2%
V1a (h); 10 μM
  inhibition at 10 µM: 11%
PPAR (h); 10 μM
  inhibition at 10 µM: 13%
H3 (h); 10 μM
  inhibition at 10 µM: 8%
TRH1 (h); 10 μM
  inhibition at 10 µM: 1%
AT2 (h); 10 μM
  inhibition at 10 µM: 12%
V2 (h); 10 μM
  inhibition at 10 µM: 5%
GABA (non‐selective)
  % inhibition of control specific binding: 5%
CCK2 (CCKB) (h); 10 μM
  inhibition at 10 µM: 3%
A2A (h); 10 μM
  inhibition at 10 µM: 9%
CysLT1 (LTD4) (h); 10 μM
  inhibition at 10 µM: 0%
EP2 (h); 10 μM
  inhibition at 10 µM: 24%
A3 (h); 10 μM
  inhibition at 10 µM: 11%
MC4 (h); 10 μM
  inhibition at 10 µM: 0%
BLT1 (LTB4) (h); 10 μM
  inhibition at 10 µM: 0%
[1]; up to 50 µM, 5 h incubation
  activity in the Class I cellular HDAC (Boc_Lys_Ac) assay: no activity
NK3 (h); 10 μM
  inhibition at 10 µM: 4%
D2S (h); 10 μM
  inhibition at 10 µM: 2%
A1 (h); 10 μM
  inhibition at 10 µM: 9%
H1 (h); 10 μM
  inhibition at 10 µM: 45%
[2]; 10 μM
  inhibition at 10 µM: 30%
Dopamine transporter (h); 10 μM
  inhibition at 10 µM: 23%
5‐HT transporter (h); 10 μM
  inhibition at 10 µM: 5%
[3]
  % inhibition of control specific binding: 13%
[4]
  % inhibition of control specific binding: 19%
I2
  % inhibition of control specific binding: 73%
[5]; 10 μM
  inhibition at 10 µM: 40%
KV channel
  % inhibition of control specific binding: 3%
Cl‐channel (GABA‐gated)
  % inhibition of control specific binding: 0%
D3 (h); 10 μM
  inhibition at 10 µM: 11%
D4.4 (h); 10 μM
  inhibition at 10 µM: 31%
